Laboratory results published in patent US20220370636A1, “NICOTINAMIDE ADENINE DINUCLEOTIDE ACTIVATOR AND USE THEREOF” (University of South Florida, priority 2021, published 2022).

Key:
[1] = system: C57BL6 mice tibialis anterior muscle; assay: BaCl2 induced tibialis anterior muscle injury in mice; format: in vivo
Protocol: Saline or 50 μl of 1% BaCl2 was injected in belly region of the muscle to induce inflammation. Muscle damage was assessed by H&E staining at day 7. The percentage of fibers recovered in higher in P7C3 treated group compared with saline treated group (FIG. 1B). The centrally placed nuclei were higher in P7C3 treated group with 3 or higher number of nuclei (FIG. 1C).
P7C3 administration (1 wk, 5 mg/kg bodyweight/day, i.p.) rescued tibialis anterior muscle injury induced by BaCl2 in mice. Administration of P7C3 increased frequency of myofiber number and fusion index as noted by increased centrally-nucleated fibers (FIGS. 1A-1C). Overall, these show the use P7C3, and the efficacy of P7C3 as a drug for muscle repair.

db/db mice = assay: Pancreatic β cells immunostaining and Gomori aldehyde fuchsin staining in db/db mice; format: in vivo; conditions: 4 weeks
Protocol: Immunostaining. Immunostaining of the pancreas was performed for the measurement of insulin secreting β cells area, as previously described. Briefly, the frozen pancreatic tissues were fixed into tissue freezing media (TFM). Pancreas were cut into 10 μm thick sections and kept at −80° C. For immunostaining, the slides were first air dried and washed with phosphate buffer saline (PBS). The sections were then fixed in 4% paraformaldehyde for 30 min and blocked with SuperBlock™ T20 (TBS) blocking buffer (Thermo scientific, MA, USA) for 30 min, at room temperature (RT). Slides were then incubated with insulin primary antibody (sc-9168, Santa Cruz, TX, USA) diluted in blocking buffer (1:200), overnight at 4° C. Slides were then washed in PBS and incubated with Alexa Fluor®488 secondary antibody (Abcam, Mass., USA) diluted in blocking buffer for 1 h at RT. Following washes, the slides were then mounted with ProLong® Gold antifade mountant containing DAPI (Molecular Probe, OR, USA). Nuclei were labelled by DAPI. The images obtained with confocal multiphoton laser scanning microscope (Olympus FV1000 MPE, Olympus Inc., USA) were quantified by using ImageJ software (NIH, USA). The cross-sectional areas of pancreas and β cells were determined from multiple sections (n=3 mice per group), separated by at least 50 μm from each section. Pancreatic β cell area was calculated by using the following formula: islet β cell area (%)=(area stained by insulin anti-body/total islets area)×100.
Gomori aldehyde fuchsin staining. The Gomori aldehyde fuchsin staining of the pancreatic β cells was performed as per previously published protocol. Briefly, the frozen pancreas was TFM embedded and cut into 6 μm thick transverse serial cryosections using Microm cryostat machine. The slides were air dried at 60° C. and dewaxed using xylene and then hydrated through decreasing concentrations of ethyl alcohol. The slides were then rinsed in cold tap water followed by a single rinse in 50% ethanol and immersed in aldehyde fuchsin (Electron Microscopy Services, PA, USA) for 1 h. The excess stain was removed by rinsing in 70% ethanol and tap water. The slides were then counter-stained with Light Green (American Master Tech Scientific, CA, USA) through immersion for 60 s and dehydrated with increasing concentration of ethanol, and cleared with xylene. The sections were then mounted with disterene phthalate xylene (DPX) mountant (Sigma-Aldrich, MO, USA). Images were obtained at ×20 magnification with the Olympus IX73 inverted microscope using CellSens Standard software (Olympus Soft Imaging Solution, USA) and quantified with ImageJ software (NIH, USA).

C57Bl/6J wildtype hearts = assay: Ex vivo ischemia reperfusion (Langendorff) in wildtype hearts; design: species or system mice
Protocol: Ex vivo ischemia reperfusion protocol. Mice were injected with heparin (360 USP units, Sigma-Aldrich, MO, USA) and euthanized with Somnasol™ (pentobarbital, 50 mg/kg i.p. body weight). Hearts were then excised and mounted on to the Langendorff apparatus immediately and perfused with Krebs-Hanseleit buffer containing (in mM): 119 NaCl, 25 NaHCO3, 4 KCl, 1 MgCl2, 1.8 CaCl2), 1 MgCl2, 10 glucose and 2 Sodium pyruvate, pH 7.4, that was constantly bubbled with carbogen gas and maintained at 37° C. as described previously. Perfusion was maintained at a constant flow of ˜2.2 ml/min. Hearts were stabilized for 30 min before proceeding to the ischemic phase. Hearts that underwent P7C3 (3 μM) treatment during the Langendorff procedure were allowed to stabilize for 10 mins then a 20 min perfusion with P7C3 (3 μM) (within Krebs-Hanseleit buffer) as pre-ischemic dosing. Cardiac ischemia was induced by the pause in Krebs-Hanseleit buffer perfusion for 45 min. Reperfusion was induced with the induction of Krebs-Hanseleit buffer at a constant flow of ˜2.2 ml/min for 2 hours. Hearts that underwent P7C3 (3 μM) treatment received 2-hour reperfusion with P7C3 within the Krebs-Hanseleit buffer. Hearts were then removed from the Langendorff apparatus and immediately placed in −20° C. freezer for 30 minutes. Hearts were then placed on a sectioning block and sliced into ([…]) slices. Heart sections were subjected to 2,3,5-Triphenyltetrazolium chloride (TTC) staining for 30 minutes. Hearts were then imaged and scanned for ischemic damage assessment. Image J software was utilized to quantify the ischemic areas for several sections per heart, which were then averaged and divided by the total area of the heart section and multiplied by a factor of ×100(%) to determine the overall damage percentage per heart.
Lactate Dehydrogenase activity. […]. The absorbance intensity was measured at 450 nm.
Troponin I activity. […].
Western blotting. For studies aimed to assess the insulin stimulated AKT phosphorylation, following four-week P7C3 treatment, mice were injected with Novolin R human insulin (1 Unit/kg body weight, i.p.), and hearts were collected after 5 minutes for Western blot analysis. Protein lysates for Western blotting were prepared from mouse hearts as described previously. Equivalent amounts of protein were loaded and resolved using 12% precast polyacrylamide gels (BioRad, CA, USA). Successful transfer of proteins was detected using Ponceau S (Sigma-Aldrich, MO, USA), and blots were probed with mouse monoclonal primary antibody for phospho AKT^ser473 (p-AKT), total AKT (t-AKT), phospho eNOS^ser1177 (p-eNOS), total eNOS (t-eNOS), Beclin1, and GAPDH (Cell signaling, MA, USA). HRP conjugated Rabbit anti-mouse antibody (Millipore) was used as a secondary antibody. Target protein band densities were quantified using Image J software.

[2] = mice, 1 wk, 5 mg/kg bodyweight/day, i.p.
[3] = WT hearts perfused with P7C3 3 μM
[4] = WT hearts, following I/R injury, vs control hearts

OC(CNc1ccccc1)Cn1c2ccc(Br)cc2c2cc(Br)ccc21 (stereo not drawn) [P7C3, 3,6-Dibromo-a-[(phenylamino)methyl]-9H-carbazole-9-ethanol]
percentage of fibers recovered ([1]; H&E staining at day 7, vs saline treated group): higher
centrally placed nuclei (3 or higher number of nuclei) ([1]; day 7, vs saline treated group): higher
frequency of myofiber number [1, 2]: increased
fusion index (centrally-nucleated fibers) [1, 2]: increased
tibialis anterior muscle injury induced by BaCl2 [1, 2]: rescued
number of islet of Langerhans per tissue section (db/db mice; vs db-Veh): significant increase
number of β cells per islets of Langerhans (db/db mice; vs db-Veh): increased
number of β cells per tissue section (db/db mice; vs db-Veh): significant increase
insulin positive β cells area per islet of Langerhans area (db/db mice; vs vehicle): significant increase
increase in NAD+/NADH levels (C57Bl/6J wildtype hearts; [3]): 3 fold
increase in cardiac Nampt activity (C57Bl/6J wildtype hearts; [3]): 1.7 fold
ischemic injury (infarct) (C57Bl/6J wildtype hearts; WT hearts, P7C3 3 μM pre- and post-exposure): 8%
p-AKT/t-AKT levels post I/R injury (C57Bl/6J wildtype hearts; WT hearts, P7C3 3 μM, vs vehicle control hearts): significant increase
coronary effluent LDH activity (C57Bl/6J wildtype hearts; [4]): significantly reduced
coronary effluent Troponin I (C57Bl/6J wildtype hearts; [4]): significantly reduced
